Data: patent EP4786454A1, “HETEROARYL DERIVATIVE AND USE THEREOF” (priority 2023, dated 2025)
Like-named read-outs stand apart in the source and are kept apart here.

Assays:
hERG potassium channels = target: T1, hERG potassium channels (Homo sapiens, UniProt Q12809); assay: Automated patch-clamp (Qpatch) assay on CHO-hERG cells; type: cell-based
T1 construct: expressed in transfected cells; host or cells: CHO-hERG
Procedure: CHO-hERG cells were cultured in a 175 cm^2 culture flask. When cells grew to a density of 60 to 80%, the culture medium was removed. Cells were washed once with 7 mL of PBS (Phosphate Buffered Saline), and then 3 mL of cell dissociation reagent was added for digestion. After the digestion was completed, 7 mL of culture medium was added for neutralization, and then the mixture was centrifuged. The supernatant was aspirated, and then 5 mL of culture medium was added to resuspend the cells and ensure that the cell density was 2~5×10^6/mL.
The compound stock solution was diluted with DMSO. 10 µL of compound stock solution was added to 20 µL of DMSO solution, followed by 3-fold serial dilution to obtain 6 DMSO concentrations. 4 µL of the compound solution at each of the six DMSO concentrations was added to 396 µL of extracellular solution to achieve a 100-fold dilution to obtain six intermediate concentrations. Then, 80 µL of the compound solution at each of the six intermediate concentrations was added to 320 µL of extracellular solution to achieve a 5-fold dilution to the desired final test concentrations. […]
The electrophysiological process was recorded. […] This voltage stimulation was applied every 15 seconds, and recorded for 2 minutes. The extracellular solution was then given, and recorded for 5 minutes. […]
Assay data were analyzed by GraphPad Prism 5.0 software. […]

[1] = Pharmacokinetic evaluation after single intravenous and gavage administration; conditions: mouse, in vivo, CD-1 mice, IV:0.5 PO:2 mg/kg
[2] = as above; conditions: mouse, in vivo, CD-1 mice, IV:1 PO:5 mg/kg
Procedure: Assay method: Mix a test compound with a mixture of 5% DMSO, 60% polyethylene glycol (PEG400) and 35% water, vortex and sonicate to prepare a clear solution of 0.2 mg/mL. Filter the solution through a microporous filter membrane for later use. Select the male CD-1 mice weighing 25 to 35 g, and administer a candidate compound solution to them via intravenous injection at a dosage of 1 mg/kg. After fasting, administer the candidate compound solution to them orally at a dosage of 5 mg/kg. After the administration to the animals, collect 25 µL of blood at 0.083, 0.25, 0.5, 1, 2, 4, 8, 12, and 24 hours, and place the blood in commercially available anticoagulant tubes pre-filled with EDTA-K2. Centrifuge the tubes for 10 minutes to separate the plasma, and store them at -60 °C. Determine the content of the target compound in the plasma samples by LC/MS/MS, and calculate the pharmacokinetic parameters using Phoenix WinNonlin software (Pharsight, USA).
Definition of each parameter: IV: intravenous injection; PO: oral administration; C0: instantaneous required concentration after intravenous injection; Cmax: peak plasma concentration after administration; Tmax: time required to reach the peak drug concentration after administration; T1/2: time required for plasma concentration to decrease by half; Vdss: apparent volume of distribution, which refers to the ratio constant between the amount of drug in the body and the plasma concentration when the drug reaches dynamic equilibrium in the body; Cl: clearance, which refers to the apparent volume of distribution of a drug cleared from the body per unit time; Tlast: time of the last test point; AUC0-last: area under the plasma concentration-time curve, which refers to the area enclosed by the plasma concentration curve on the time axis; F: a measure of the speed and extent to which a drug is absorbed into the blood circulation, which is an important indicator for evaluating the degree of drug absorption.
The purpose of this assay was to evaluate the pharmacokinetic behaviors after a single intravenous bolus and gavage administration of a compound, to investigate the bioavailability after the gavage administration, and to provide animal experimental data for clinical research.
CD-1 mice (male, 7 to 9 weeks old)
The pharmacokinetic characteristics of the compounds after intravenous and oral administration were assayed in rodents using a standard protocol. In the assay, a candidate compound was prepared into a clear solution and administered to mice via single intravenous and oral administration. The solvent for both intravenous and oral administration was a mixed solvent prepared with 5% DMSO, 60% PEG400, and 35% water. Four female CD-1 mice were used in this project. Two mice were administered intravenously, and plasma samples were collected at 0.083, 0.25, 0.5, 1, 2, 4, 8 and 24 h after the administration. The other two mice were administered orally via gavage, and plasma samples were collected at 0.25, 0.5, 1, 2, 4, 8 and 24 h after the administration. The plasma samples were […] at 4 °C and 3,200 × g for 10 min, and the supernatants were separated to give plasma samples. 20 times the volume of methanol solution containing internal standard was added to precipitate the proteins. After centrifugation at 12,000 × g for 15 min at 4 °C, 50 µL of the supernatant was taken and transferred to a 96-well plate, and centrifuged a second time, and the resulting supernatant was injected for analysis. The plasma concentration was quantitatively analyzed by LC-MS/MS method, and the pharmacokinetic parameters such as peak concentration (Cmax), clearance (CL), half-life (T1/2), […] (Vdss), area under the plasma concentration-time curve (AUC0-last), and bioavailability (F) were calculated.

[3] = read-out: Area under the plasma concentration-time curve AUC0-last PO
[4] = read-out: Half-life T1/2 (IV) (converted)
[5] = read-out: Peak concentration Cmax
[6] = read-out: Tissue distribution Vdss

T1 sequence (Q12809 whole entry): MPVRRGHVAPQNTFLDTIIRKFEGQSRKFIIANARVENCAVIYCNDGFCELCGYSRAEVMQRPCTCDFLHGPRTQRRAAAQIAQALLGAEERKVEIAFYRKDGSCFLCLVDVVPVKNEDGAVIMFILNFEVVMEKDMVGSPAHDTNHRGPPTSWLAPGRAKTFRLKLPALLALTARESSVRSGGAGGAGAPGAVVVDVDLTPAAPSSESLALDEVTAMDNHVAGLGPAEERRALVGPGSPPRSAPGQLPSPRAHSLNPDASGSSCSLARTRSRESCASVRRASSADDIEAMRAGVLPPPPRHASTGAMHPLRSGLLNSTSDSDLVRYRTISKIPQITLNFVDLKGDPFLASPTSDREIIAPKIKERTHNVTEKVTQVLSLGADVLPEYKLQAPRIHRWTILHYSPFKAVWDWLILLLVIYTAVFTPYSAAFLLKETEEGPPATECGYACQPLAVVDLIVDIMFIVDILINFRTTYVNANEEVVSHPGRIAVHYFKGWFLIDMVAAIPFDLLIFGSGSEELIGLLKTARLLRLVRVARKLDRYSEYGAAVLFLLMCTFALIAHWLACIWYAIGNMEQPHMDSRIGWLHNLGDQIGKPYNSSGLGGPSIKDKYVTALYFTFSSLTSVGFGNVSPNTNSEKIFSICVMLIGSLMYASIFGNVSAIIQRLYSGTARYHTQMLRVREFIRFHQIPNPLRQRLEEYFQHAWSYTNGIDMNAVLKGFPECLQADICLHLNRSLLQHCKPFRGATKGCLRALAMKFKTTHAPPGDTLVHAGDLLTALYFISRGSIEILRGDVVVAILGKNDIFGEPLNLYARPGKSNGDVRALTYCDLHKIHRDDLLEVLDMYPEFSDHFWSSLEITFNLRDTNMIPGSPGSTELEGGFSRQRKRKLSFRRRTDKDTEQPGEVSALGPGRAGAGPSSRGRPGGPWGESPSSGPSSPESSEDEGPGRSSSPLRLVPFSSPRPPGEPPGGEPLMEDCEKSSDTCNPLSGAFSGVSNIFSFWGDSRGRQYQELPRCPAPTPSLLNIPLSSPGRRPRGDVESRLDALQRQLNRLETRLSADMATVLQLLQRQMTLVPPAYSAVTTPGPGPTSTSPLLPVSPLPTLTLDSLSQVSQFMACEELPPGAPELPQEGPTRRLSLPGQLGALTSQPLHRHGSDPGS

Row | SMILES | IC50 (hERG potassium channels; CHO-hERG cells, highest test concentration 40.00 µM, read-out: IC50) | AUC(0-t) [1, 3] | bioavailability ([1]; read-out: Bioavailability F) | clearance ([1]; read-out: Clearance CL) | half-life [1, 4] | Cmax [1, 5] | Vd [1, 6] | AUC(0-t) [2, 3] | bioavailability ([2]; read-out: Bioavailability F) | clearance ([2]; read-out: Clearance CL) | half-life [2, 4] | Cmax [2, 5] | Vd [2, 6] | IC50 (hERG potassium channels)
1 | CC(C)(C)CC(=O)Nc1nc2c(F)cc(C#N)cn2c1C1=CCCC1 [Compound 3] | > 40 µM | 2.35 µM·h | 57.3% | 25.6 mL/min/kg | 30 min | 1150 nM | 0.94 L/kg |  |  |  |  |  |  | 
2 | CC(C)(C)CC(=O)Nc1nc2c(F)cc(C#N)cn2c1-c1ccc(OC(F)(F)F)cc1 [Compound 1] |  |  |  |  |  |  |  | 1.41 µM·h | 51.1% | 67.8 mL/min/kg | 52.8 min | 355 nM | 4.89 L/kg | > 40 µM
